Data as given in patent publication US9381186B2, “Substituted chroman derivatives, medicaments and use in therapy” (MEI Pharma, Inc., priority 2004, dated 2016).
≈ marks a conversion by molar mass, not a printed value. Where two headings read alike, the source gives them in different places.

Legend:
RK (rabbit kidney) cells = test: Cytotoxicity (MTT proliferation assay) against rabbit kidney cells; assay type: cell-based
Procedure: (§1) The normal cell line NFF (neonatal foreskin fibroblasts) was a gift from Dr. Peter Parsons (Queensland Institute of Medical Research). RK (rabbit kidney) cells were obtained from Miller Whalley (Macquarie University). Both cell lines were cultured in RPMI supplemented with 10% FCS (CSL, Australia), penicillin (100 U/ml), streptomycin ([…]), L-glutamine (2 mM) and sodium bicarbonate (1.2 g/L), and cultured at 37° C. in a humidified atmosphere of 5% CO2
(§2) IC50 values were determined for each cell line. Cells were seeded in 96-well plates at an appropriate cell density as determined from growth kinetics analysis and cultured for 5 days in the absence and presence of the test compounds. Cell proliferation was assessed after the addition of 20 μl of 3-4,5 dimethylthiazol-2,5-diphenyl tetrazolium bromide (MTT, 2.5 mg/ml in PBS, Sigma) for 3-4 hrs at 37° C. according to manufacturer's instructions. IC50 values were calculated from semi-log plots of % of control proliferation on the y-axis against log dose on the x-axis.

[1] = tested on: NFF (neonatal foreskin fibroblasts); test: Cytotoxicity (MTT proliferation assay) against neonatal foreskin fibroblasts; assay type: cell-based, Human; conditions: Homo sapiens, Fibroblast
Procedure: as §1, §2

CP70 = test: MTT proliferation assay, ovarian CP70; assay type: cell-based
PC3 = test: MTT proliferation assay, prostate PC3; assay type: cell-based; conditions: Homo sapiens, PC-3
Procedure: (§3) An cultures were supplemented with 10% FCS (CSL, Australia), penicillin (100 U/ml), streptomycin ([…]), L-glutamine (2 mM) and sodium bicarbonate (1.2 g/L), and cultured at 37° C. in a humidified atmosphere of 5% CO2. All cell lines were purchased from ATCC (Maryland, USA) except where noted.
as §2

MDA-MB-468 = test: MTT proliferation assay, breast MDA-MB-468; assay type: cell-based; conditions: Homo sapiens
HTB-138 = test: MTT proliferation assay, glioma HTB-138; assay type: cell-based
Procedure: as §3, §2

HPAC = test: MTT proliferation assay, pancreatic HPAC; assay type: cell-based; conditions: Homo sapiens, Table 2.2
NCI-H23 = test: MTT proliferation assay, lung NCI-H23; assay type: cell-based; conditions: Homo sapiens; Lung NCI-H23, Table 2.1; read-out: cytoxicity (IC50)
Procedure: as §3, §2

HT-29 = test: MTT proliferation assay, colorectal HT-29; assay type: cell-based; conditions: for IC50: Homo sapiens
Procedure: as §3, §2

MM200 = test: MTT proliferation assay, melanoma MM200; assay type: cell-based
CCRF-CEM = test: MTT proliferation assay, leukaemia (ALL) CCRF-CEM; assay type: cell-based; conditions: Homo sapiens, Table 2.2
Procedure: as §3, §2

NCI-H460 = test: MTT proliferation assay, NSC lung NCI-H460; assay type: cell-based; conditions: Homo sapiens; NSC Lung NCI-H460, Table 2.2
Procedure: as §3, §2

[2] = Oral pharmacokinetics in female BALB/c mice; assay type: in vivo, mouse
Procedure: Compound No. 1 labelled above was prepared as homogenous suspensions in 1% CMC (m:v, water). The formulation was delivered orally by gavage to female BALB/c mice at a dosage of 50 mg/kg. Three animals were allocated to each timepoint (15 min, 30 min, 1 hr, 4 hr and 24 hr). At each respective timepoint, animals were euthanised by cervical dislocation and blood collected. The concentration of free compound was analysed by mass spectroscopy.

[3] = tested on: murine macrophages (RAW 264.7) stimulated with LPS; test: Eicosanoid synthesis in LPS-stimulated RAW 264.7 macrophages; assay type: cell-based, mouse; conditions: test compound 10 μM, LPS 50 ng/ml, 16 hrs; negative = inhibition
Procedure: The mouse macrophage cell line RAW 264.7 was cultured in DMEM supplemented with foetal calf serum (FCS), 2 mM glutamine and 50 U/ml penicillin/streptomycin. Subconfluent cells were detached from the flask by gentle scraping and 24-well plates seeded at 5×10^5 cells per well and allowed to adhere for 1 hr. Cells were then treated either test compound at a concentration of 10 μM (in 0.025% DMSO) or vehicle alone, and incubated for 1 hr. LPS 50 ng/ml (LPS—Sigma-Aldrich) was then added. After incubation for 16 hrs, culture media was collected and stored at −80° C. for ecosanoid measurements using enzyme immunometric assays (PGE2 and TXB2—Cayman Chemical).

[4] = Preliminary formulation study, solubility in 20% HPBCD; assay type: physicochemical; conditions: aqueous with cosolvent or surfactant or cyclodextrin, preliminary formulation studies
cancer cell lines = test: Proliferation assays, panel of cancer cell lines; assay type: cell-based; conditions: CP70, PC3, MDA-MB-468, HTB-138 and lung cancer cell lines

Question: With `COc1ccc(C2c3ccc(O)c(C)c3OCC2c2ccc(O)cc2)cc1` (stereo not shown) [Compound 1, 3-(4-hydroxyphenyl)-4-(4-methoxyphenyl)-8-methyl-3,4-dihydro-2H-chromen-7-ol] as the molecule, how does the IC50 (RK (rabbit kidney) cells; Oryctolagus cuniculus, rabbit kidney cells) read?
Answer: > 60 µM

Question: What about the IC50 (RK (rabbit kidney) cells; Rabbit Kidney cells) of the same molecule?
Answer: > 60 µM

Question: And the IC50 ([1]; Neonatal Foreskin Fibroblasts (Human, NFF), read-out: IC50)?
Answer: ~2 µM

Question: And the IC50 ([1]; non-transformed neonatal foreskin fibroblasts, read-out: IC50)?
Answer: 2 µM

Question: And the IC50 ([1]; text says rabbit kidney cells, values are those of the NFF line of Table 1, read-out: degree of toxicity (IC50))?
Answer: 2 µM

Question: What about the IC50 (CP70; Ovarian CCP70, Table 2.1, read-out: cytoxicity (IC50)) of the same molecule?
Answer: 1.7 µM

Question: What about the IC50 (CP70; Ovarian CP70, Table 2.2, read-out: IC50) of the same molecule?
Answer: 1.9 ± 0.4 µM

Question: What about the IC50 (PC3; Prostate PC3, Table 2.1, read-out: cytoxicity (IC50)) of the same molecule?
Answer: 1.7 ± 0.5 µM

Question: And the IC50 (PC3; Prostate PC3, Table 2.2, read-out: IC50)?
Answer: 1.6 ± 0.8 µM

Question: And the IC50 (MDA-MB-468; Breast MDA-MB-468, Table 2.1, read-out: cytoxicity (IC50))?
Answer: 0.6 ± 0.01 µM

Question: What about the IC50 (MDA-MB-468; Breast MDA-MB-468, Table 2.2, read-out: IC50) of the same molecule?
Answer: 1 ± 0.6 µM

Question: And the IC50 (HTB-138; Glioma HTB-138, Table 2.1, read-out: cytoxicity (IC50))?
Answer: 1.1 µM

Question: What about the IC50 (HTB-138; Glioma HTB-138, Table 2.2, read-out: IC50) of the same molecule?
Answer: 1.16 µM

Question: What about the IC50 (HPAC) of the same molecule?
Answer: 51.7 ± 8 µM

Question: What about the IC50 (NCI-H23) of the same molecule?
Answer: 1.9 ± 0.1 µM

Question: What about the IC50 (HT-29; Colorectal HT-29, Table 2.1, read-out: cytoxicity (IC50)) of the same molecule?
Answer: 17.4 µM

Question: And the IC50 (HT-29; Colorectal HT-29, Table 2.2, read-out: IC50)?
Answer: 15.7 ± 2.4 µM

Question: And the activity in words (HT-29; colorectal cell line HT-29)?
Answer: moderately active

Question: And the IC50 (MM200; Melanoma MM200, Table 2.1, read-out: cytoxicity (IC50))?
Answer: 1 ± 0.01 µM

Question: What about the IC50 (MM200; Melanoma MM200, Table 2.2, read-out: IC50) of the same molecule?
Answer: 0.78 ± 0.23 µM

Question: What about the IC50 (CCRF-CEM) of the same molecule?
Answer: 1.6 ± 1.2 µM

Question: And the IC50 (NCI-H460)?
Answer: 1.2 ± 0.45 µM

Question: What about the concentration at 1 h ([2]; female, BALB/c, mouse, faeces, po, 50 mg/kg, oral 50 mg/kg, Time 1 (head prints days), read-out: Faeces Free) of the same molecule?
Answer: 1060 ± 913 µM

Question: And the concentration at 4 h ([2]; female, BALB/c, mouse, faeces, po, 50 mg/kg, oral 50 mg/kg, Time 4 (head prints days), read-out: Faeces Free)?
Answer: 1790 ± 625 µM

Question: What about the concentration at 24 h ([2]; female, BALB/c, mouse, faeces, po, 50 mg/kg, oral 50 mg/kg, Time 24 (head prints days), read-out: Faeces Free) of the same molecule?
Answer: 800 ± 670 µM

Question: And the half-life ([2]; female, BALB/c, mouse, serum, 50 mg/kg, oral, sera, read-out: half life)?
Answer: ~30 min

Question: And the concentration at 0.25 h ([2]; female, BALB/c, mouse, serum, po, 50 mg/kg, oral 50 mg/kg, Time 0.25 (head prints days), read-out: Serum Free)?
Answer: 27.3 ± 23 µM

Question: What about the concentration at 0.5 h ([2]; female, BALB/c, mouse, serum, po, 50 mg/kg, oral 50 mg/kg, Time 0.5 (head prints days), read-out: Serum Free) of the same molecule?
Answer: 8.2 ± 6.5 µM

Question: What about the concentration at 1 h ([2]; female, BALB/c, mouse, serum, po, 50 mg/kg, oral 50 mg/kg, Time 1 (head prints days), read-out: Serum Free) of the same molecule?
Answer: 2.4 ± 1.6 µM

Question: And the concentration at 4 h ([2]; female, BALB/c, mouse, serum, po, 50 mg/kg, oral 50 mg/kg, Time 4 (head prints days), read-out: Serum Free)?
Answer: 0.3 ± 0.02 µM

Question: And the concentration at 24 h ([2]; female, BALB/c, mouse, serum, po, 50 mg/kg, oral 50 mg/kg, Time 24 (head prints days), read-out: Serum Free)?
Answer: 0.05 ± 0.02 µM

Question: What about the concentration at 0.25 h ([2]; female, BALB/c, mouse, serum, po, 50 mg/kg, oral, Time 0.25, Table 4, read-out: Free concentration, comparative oral pharmacokinetic data) of the same molecule?
Answer: 27.3 ± 23 µM

Question: And the concentration at 0.5 h ([2]; female, BALB/c, mouse, serum, po, 50 mg/kg, oral, Time 0.5, Table 4, read-out: Free concentration, comparative oral pharmacokinetic data)?
Answer: 8.2 ± 6.5 µM

Question: And the concentration at 1 h ([2]; female, BALB/c, mouse, serum, po, 50 mg/kg, oral, Time 1, Table 4, read-out: Free concentration, comparative oral pharmacokinetic data)?
Answer: 2.4 ± 1.6 µM

Question: And the concentration at 4 h ([2]; female, BALB/c, mouse, serum, po, 50 mg/kg, oral, Time 4, Table 4, read-out: Free concentration, comparative oral pharmacokinetic data)?
Answer: 0.33 ± 0.02 µM

Question: What about the concentration at 24 h ([2]; female, BALB/c, mouse, serum, po, 50 mg/kg, oral, Time 24, Table 4, read-out: Free concentration, comparative oral pharmacokinetic data) of the same molecule?
Answer: 0.05 ± 0.02 µM

Question: What about the concentration at 30 min ([2]; female, BALB/c, mouse, serum, po, 50 mg/kg, oral, after 30 min, read-out: free concentration in sera) of the same molecule?
Answer: 8.2 µM

Question: What about the concentration at 1 hr ([2]; female, BALB/c, mouse, serum, po, 50 mg/kg, oral, after 1 hr, read-out: free concentration in sera) of the same molecule?
Answer: 2.4 µM

Question: What about the concentration at 0.25 h ([2]; female, BALB/c, mouse, urine, po, 50 mg/kg, oral 50 mg/kg, Time 0.25 (head prints days), read-out: Urine Free) of the same molecule?
Answer: 17.1 ± 7.2 µM

Question: And the concentration at 0.5 h ([2]; female, BALB/c, mouse, urine, po, 50 mg/kg, oral 50 mg/kg, Time 0.5 (head prints days), read-out: Urine Free)?
Answer: 22.1 ± 1.5 µM

Question: And the concentration at 1 h ([2]; female, BALB/c, mouse, urine, po, 50 mg/kg, oral 50 mg/kg, Time 1 (head prints days), read-out: Urine Free)?
Answer: 26.3 ± 2.2 µM

Question: What about the concentration at 4 h ([2]; female, BALB/c, mouse, urine, po, 50 mg/kg, oral 50 mg/kg, Time 4 (head prints days), read-out: Urine Free) of the same molecule?
Answer: 1.1 ± 0.1 µM

Question: And the concentration at 24 h ([2]; female, BALB/c, mouse, urine, po, 50 mg/kg, oral 50 mg/kg, Time 24 (head prints days), read-out: Urine Free)?
Answer: 0.1 ± 0.1 µM

Question: And the “share of compound recovered from faeces present in free form” value ([2]; oral)?
Answer: ~100%

Question: And the “Cmax of free compound in sera” value ([2]; oral, 15 minutes post administration)?
Answer: 27.3 µM

Question: And the “free concentration relative to phenoxodiol” value ([2]; oral, after 15 and 30 min)?
Answer: 10-20 fold

Question: And the “concentration relative to phenoxodiol” value ([2]; oral, after 1 hr)?
Answer: Approximately 2 fold

Question: And the “share present as the free entity in urine” value ([2]; oral, at any time-point)?
Answer: ≤ 2%

Question: What about the “Percentage change in PGE2 synthesis compared with vehicle” value [3] of the same molecule?
Answer: −53.8%

Question: And the “Percentage change in TXB2 synthesis compared with vehicle” value [3]?
Answer: −15.9%

Question: What about the solubility [4] of the same molecule?
Answer: 11.2 mg/mL (≈ 30.9 mM)

Question: What about the “activity relative to phenoxodiol (IC50 comparison)” value (cancer cell lines) of the same molecule?
Answer: 2-10 fold
